From ChEMBL document CHEMBL1201862, “PubChem BioAssay data set” (2004)
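Method: 48-hour compound exposure of cells in 96-well plates, five concentrations, linear interpolation of endpoints. GI50: concentration for 50% inhibition of growth.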 Activity calls are given as the source filed them. Rule as the data show it: active = GI50 up to about 1.1 µM and inactive = higher.

Assays:
Experiment in all cases: inhibition of tumour cell growth, NCI panel, 48 h
786-0 = tested on: 786-0
DU-145 = tested on: DU-145
EKVX = tested on: EKVX
HCT-116 = tested on: HCT-116
HCT-15 = tested on: HCT-15
HOP-62 = tested on: HOP-62
HT-29 = tested on: HT-29
Hs-578T = tested on: Hs-578T
IGROV-1 = tested on: IGROV-1
K562 = tested on: K562
MDA-MB-231 = tested on: MDA-MB-231
MOLT-4 = tested on: MOLT-4
NCI-H460 = tested on: NCI-H460
NCI/ADR-RES = tested on: NCI/ADR-RES
SF-268 = tested on: SF-268
SF-295 = tested on: SF-295
SK-MEL-5 = tested on: SK-MEL-5
SNB-19 = tested on: SNB-19
T47D = tested on: T47D

Compound	GI50 (786-0)	GI50 (DU-145)	GI50 (EKVX)	GI50 (HCT-116)	GI50 (HCT-15)	GI50 (HOP-62)	GI50 (HT-29)	GI50 (Hs-578T)	GI50 (IGROV-1)	GI50 (K562)	GI50 (MDA-MB-231)	GI50 (MOLT-4)	GI50 (NCI-H460)	GI50 (NCI/ADR-RES)	GI50 (SF-268)	GI50 (SF-295)	GI50 (SK-MEL-5)	GI50 (SNB-19)	GI50 (T47D)
O=[N+]([O-])c1ccc(-[n+]2ccc3ccccc3c2)c([N+](=O)[O-])c1	1.73 µM (inactive)	14.6 µM (inactive)	6.73 µM (inactive)	2.35 µM (inactive)	1.86 µM	8.18 µM (inactive)	2.33 µM (inactive)	7.6 µM (inactive)	3.1 µM (inactive)	1.55 µM (inactive)	3.62 µM (inactive)	2.83 µM (inactive)	10.9 µM (inactive)	3.28 µM (inactive)	3.12 µM (inactive)	14.8 µM (inactive)	2.64 µM (inactive)	18.1 µM (inactive)	2.01 µM (inactive)
Clc1ccc(Cc2nc3cc4ccccc4cc3[nH]2)cc1Cl	27 µM (inactive)	20.7 µM (inactive)	29.2 µM (inactive)	20.1 µM (inactive)	15.2 µM	26.1 µM (inactive)	10.2 µM (inactive)	21.3 µM (inactive)	3.01 µM (inactive)	6.15 µM (inactive)	16.6 µM (inactive)	2.37 µM (inactive)	6.97 µM (inactive)	28.7 µM (inactive)	15.9 µM (inactive)		3.93 µM (inactive)	18.7 µM (inactive)	12.2 µM (inactive)
O=C(CSc1ncccn1)N/N=C/c1ccccc1OCc1ccccc1	34.6 µM (inactive)	29.8 µM (inactive)	27.9 µM (inactive)	23 µM (inactive)	17.3 µM	28.2 µM (inactive)	34.1 µM (inactive)	37.8 µM (inactive)	28.4 µM (inactive)	20.1 µM (inactive)	30.9 µM (inactive)	20.2 µM (inactive)	30.1 µM (inactive)	25.9 µM (inactive)	43 µM (inactive)	21.6 µM (inactive)	14.8 µM (inactive)	45.3 µM (inactive)	24.8 µM (inactive)
CCCNC(=O)CCC(C)[C@H]1CCC2C3C(C[C@H](OC(C)=O)[C@@]21C)[C@@]1(C)CCC2(C[C@H]1C[C@H]3OC(C)=O)OOC1(CCC(C)CC1)OO2 (stereo partly drawn)	16.2 µM (inactive)	9.31 µM (inactive)	13.6 µM (inactive)	32.1 µM (inactive)	35.3 µM	1.72 µM (inactive)	36.9 µM (inactive)	31 µM (inactive)	1.87 µM (inactive)	33.2 µM (inactive)	29.1 µM (inactive)	37.7 µM (inactive)	23.5 µM (inactive)	16.6 µM (inactive)	20 µM (inactive)	26.7 µM (inactive)	14.6 µM (inactive)	80.2 µM (inactive)	15.9 µM (inactive)
C1=Nc2sc3c(c2C2=NCCN12)CCCC3	17.4 µM (inactive)	16.3 µM (inactive)	15.6 µM (inactive)	16.3 µM (inactive)	16.4 µM	20 µM (inactive)	18.1 µM (inactive)	21.5 µM (inactive)	15.4 µM (inactive)	22.4 µM (inactive)	14.2 µM (inactive)	13.8 µM (inactive)	17.5 µM (inactive)	18.2 µM (inactive)	20.6 µM (inactive)	21.5 µM (inactive)	18 µM (inactive)	18.4 µM (inactive)	17.7 µM (inactive)
O=[N+]([O-])c1ccc2nc3ccc([N+](=O)[O-])cn3c2c1	34.4 µM (inactive)	39.2 µM (inactive)	29.4 µM (inactive)	33.4 µM (inactive)	> 100 µM	17.6 µM (inactive)	83 µM (inactive)	27.4 µM (inactive)	97.1 µM (inactive)	> 100 µM (inactive)	33 µM (inactive)	> 100 µM (inactive)	43.3 µM (inactive)	> 100 µM (inactive)	30.5 µM (inactive)	> 100 µM (inactive)	> 100 µM (inactive)	36.1 µM (inactive)	> 100 µM (inactive)
O=C(Nc1nncs1)NS(=O)(=O)n1c(=S)sc2ccccc21	> 100 µM (inactive)	> 100 µM (inactive)	72.6 µM (inactive)	> 100 µM (inactive)	> 100 µM	> 100 µM (inactive)	> 100 µM (inactive)	> 100 µM (inactive)	> 100 µM (inactive)	> 100 µM (inactive)	> 100 µM (inactive)	42.4 µM (inactive)	> 100 µM (inactive)	> 100 µM (inactive)	> 100 µM (inactive)	> 100 µM (inactive)	> 100 µM (inactive)	> 100 µM (inactive)	88.9 µM (inactive)
COc1ccc(C(=O)/C=C/c2ccc(OCC#N)cc2)cc1	42.2 µM (inactive)	30 µM (inactive)	74.5 µM (inactive)	12.2 µM (inactive)	23.3 µM	53.1 µM (inactive)	33.3 µM (inactive)	27.7 µM (inactive)	> 10 µM (inactive)	28.2 µM (inactive)	23.4 µM (inactive)	23.3 µM (inactive)	27.3 µM (inactive)	20.9 µM (inactive)	34.1 µM (inactive)	41 µM (inactive)	15.1 µM (inactive)	26.2 µM (inactive)	14.9 µM (inactive)
CC1=NN(c2nc(N)nc(COCc3nc(N)nc(N4N=C(C)CC4(C)C)n3)n2)C(C)(C)C1	> 100 µM (inactive)	> 100 µM (inactive)	> 100 µM (inactive)	> 100 µM (inactive)	> 100 µM	> 100 µM (inactive)	> 100 µM (inactive)	> 100 µM (inactive)	> 100 µM (inactive)	> 100 µM (inactive)	> 100 µM (inactive)	> 100 µM (inactive)	> 100 µM (inactive)	> 100 µM (inactive)	> 100 µM (inactive)	> 100 µM (inactive)	> 100 µM (inactive)	> 100 µM (inactive)	> 100 µM (inactive)
Clc1ccc(Nc2nnc(CNc3ccc(-c4nnc(Nc5ccc(Cl)cc5)o4)cc3)o2)cc1	8 µM (inactive)	12.7 µM (inactive)	22.3 µM (inactive)	12.2 µM (inactive)	14.9 µM	18.9 µM (inactive)	12.2 µM (inactive)	17.8 µM (inactive)	14.1 µM (inactive)	0.504 µM (active)	7.93 µM (inactive)	6.35 µM (inactive)	14.9 µM (inactive)	29.7 µM (inactive)	21.2 µM (inactive)	19.9 µM (inactive)	15.9 µM (inactive)	18.7 µM (inactive)	24.6 µM (inactive)
COC1/C=C\C=C(/C)C(=O)NC2=CC(=O)C(O)=C(CC(C)CC(OC)C(O)C(C)/C=C(\C)C1OC(N)=O)C2=O (stereo not drawn)	10.1 µM (inactive)	0.115 µM (active)	10.8 µM (inactive)	0.267 µM (active)	2.26 µM	13.7 µM (inactive)	0.0269 µM (active)	3.13 µM (inactive)	0.757 µM (active)	0.137 µM (active)	0.366 µM (active)	0.0959 µM (active)	1.5 µM (inactive)	64.6 µM (inactive)	5.7 µM (inactive)	4.99 µM (inactive)	0.859 µM (active)	15.8 µM (inactive)	7.05 µM (inactive)
CC1=NN(C(=O)c2ccncc2)C(=O)C1	> 100 µM (inactive)	> 100 µM (inactive)	> 100 µM (inactive)	> 100 µM (inactive)	> 100 µM	> 100 µM (inactive)	> 100 µM (inactive)	> 100 µM (inactive)	> 100 µM (inactive)	> 100 µM (inactive)	32.2 µM (inactive)	89.9 µM (inactive)	> 100 µM (inactive)	> 100 µM (inactive)	> 100 µM (inactive)	> 100 µM (inactive)	> 100 µM (inactive)	> 100 µM (inactive)	> 100 µM (inactive)
COc1ccc(C2CCc3nc4nc(N)nc(N)c4cc3C2)cc1 (stereo not drawn)	3.13 µM (inactive)	39.7 µM (inactive)	41.2 µM (inactive)	26 µM (inactive)	58.9 µM	12.1 µM (inactive)	29.2 µM (inactive)	15.6 µM (inactive)	9.68 µM (inactive)	16.4 µM (inactive)	14.8 µM (inactive)	22.1 µM (inactive)	40.6 µM (inactive)	39.2 µM (inactive)	15.8 µM (inactive)	16.8 µM (inactive)	62.5 µM (inactive)	6.65 µM (inactive)	21 µM (inactive)
O=S(=O)(O)c1ccc(-c2nnc(-c3ccccn3)nc2-c2ccc(S(=O)(=O)O)o2)o1	> 100 µM (inactive)	> 100 µM (inactive)	> 100 µM (inactive)	> 100 µM (inactive)	> 100 µM	> 100 µM (inactive)	> 100 µM (inactive)	> 100 µM (inactive)	> 100 µM (inactive)	> 100 µM (inactive)	> 100 µM (inactive)	> 100 µM (inactive)	> 100 µM (inactive)	> 100 µM (inactive)	> 100 µM (inactive)	> 100 µM (inactive)	> 100 µM (inactive)	> 100 µM (inactive)	> 100 µM (inactive)
CC(C)[C@]12O[C@H]1[C@@H]1O[C@@]13[C@@]1(C)CCC4=C(COC4=O)[C@@H]1C[C@@H]1O[C@@]13C2=O [TRIPTONIDE]	0.0248 µM (active)	0.0235 µM (active)	0.0287 µM (active)	< 0.01 µM (active)	0.0251 µM	< 0.01 µM (active)	< 0.01 µM (active)	< 0.0158 µM (active)	< 0.01 µM (active)	0.0128 µM (active)	0.0248 µM (active)	< 0.01 µM (active)	< 0.01 µM (active)	0.0386 µM (active)	0.0229 µM (active)	0.0771 µM (active)	0.0141 µM (active)		0.0238 µM (active)
